Values of other authors as cited in patent US11413253B2, “Nanoparticle delivery systems” (Celator Pharmaceuticals, Inc., priority 2015, dated 2022).

Settings: shown in the art

| SMILES | plasma clearance of free drug |
| --- | --- |
| CCNC(=O)c1noc(-c2cc(C(C)C)c(O)cc2O)c1-c1ccc(CN2CCOCC2)cc1 [free AUY922, AUY922] | cleared quite rapidly |
| CC(=O)O[C@@]12CO[C@@H]1C[C@H](O)[C@@]1(C)C(=O)[C@H](O)C3=C(C)[C@@H](OC(=O)[C@H](O)[C@@H](NC(=O)OC(C)(C)C)c4ccccc4)C[C@@](O)([C@@H](OC(=O)c4ccccc4)[C@H]21)C3(C)C [free docetaxel, docetaxel] | cleared quite rapidly |
